Nine molecules from PubChem BioAssay (NCI) can be followed below.

Assay in all cases: growth of human tumour cells (NCI), 48 h
Assay [1] concerns A498 renal.
The test system of assay [2] is A549 NSCLC.
For assay [3], the system named is COLO 205 colon.
In assay [4] the test system is DU-145 prostate.
Assay [5] concerns HCC-2998 colon.
Assay [6] relates to M14 melanoma.
In assay [7] the test system is MALME-3M melanoma.
For assay [8], the system named is RPMI-8226 leukemia.
Assay [9] relates to SNB-19 CNS.
For assay [10], the system named is TK-10 renal.

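These data come from cells grown in 96-well plates and exposed to compound for 48 hours at five concentrations. Here, GI50 denotes the concentration required for 50% inhibition of growth. At the TGI there is no net growth.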 Bounds are passed on as bounds.

For the molecule `O=C1C(Cl)=C(Nc2ccccn2)C(=O)c2ccccc21`, the GI50 in [1] was 12.9 µM; in assay [2], 9.02 µM; in assay [3] it was 3.23 µM; in assay [4], 1.94 µM; in assay [5], 17.8 µM; in assay [6], 2.07 µM. Further, the GI50 in assay [7] was 1.81 µM; in assay [8] it was 2.15 µM; in assay [9], 4.53 µM; in assay [10] it was 12.9 µM. Also, the TGI is 25.6 µM in [1]; 37 µM in assay [2]; 11.4 µM in assay [3]; 3.39 µM in assay [4]; 33.7 µM in assay [5]; 3.84 µM in assay [6]. Besides, the TGI in [7] turned out to be 3.65 µM; in assay [8] it was 7.03 µM; in [9], 16.3 µM; in assay [10] it was 25.5 µM.
For the molecule `Cc1ccc2nc(CC(=O)c3ccc4ccccc4c3)c(=O)[nH]c2c1`, the TGI in assay [1], in [2], in assay [3], in assay [4], in assay [5] and in [6] was above 100 µM in each case. Also, the TGI in assay [7], in assay [8], in assay [9] and in assay [10] was above 100 µM throughout.
Regarding `O=C1c2ccccc2CCC1(Br)Br`, the GI50 in assay [1] was 7.69 µM; in assay [2] it was 6.84 µM; in [3], 0.671 µM; in assay [4], 3.73 µM; in assay [5] it was 3.88 µM; in assay [6], 2.08 µM. Moreover, the GI50 in [7] is 1.06 µM; in assay [8] it was 1.99 µM; in [9], 10.4 µM; in assay [10], 1.5 µM. The TGI in [1] worked out at 20.9 µM; in [2] it was 19.1 µM; in assay [3], 2.06 µM; in assay [4], 12 µM; in assay [5] it was 9.19 µM; in assay [6], 5.12 µM. The TGI stood at 2.75 µM in assay [7], 4.9 µM in assay [8], 23.2 µM in assay [9] and 2.88 µM in assay [10].
For the molecule `C=C(CN(C)C)C(=O)c1ccc(OC)cc1`, the TGI was found to be 25.6 µM in [1]; 42.8 µM in assay [2]; 1.39 µM in assay [3]; 10.7 µM in assay [4]; 22.4 µM in assay [5]; 5.66 µM in [6]. The TGI in assay [7] is 3.5 µM; in [8], 9.19 µM; in assay [9] it was 40.3 µM; in assay [10], 7.88 µM.
Take `COCO[C@@H]1CC2C=Nc3cc(OCc4ccccc4)c(OC)cc3C(=O)N2C1` (stereo partly specified): the GI50 in assay [1] was 0.976 µM; in assay [2], 0.468 µM; in assay [3], 0.181 µM; in assay [4], 0.426 µM; in assay [5], 0.519 µM; in assay [6], 0.42 µM. For the same molecule, the GI50 in [7] is 0.37 µM; in assay [8] it was 0.211 µM; in [9], 1.06 µM; in assay [10], 0.869 µM. In addition, the TGI was determined as 3.25 µM in [1]; 9.15 µM in assay [2]; 0.386 µM in assay [3]; 5.24 µM in assay [4]; 2.63 µM in assay [5]; 1.39 µM in [6]. Also, the TGI in [7] is 2.79 µM; in [8], above 20.8 µM; in assay [9], 44.6 µM.
Regarding `COc1ccc(CCN2COc3ccc4ccc(=O)oc4c3C2)cc1OC`, the TGI in [1], in [2], in [3], in [4], in assay [5] and in assay [6] was above 100 µM each time. The TGI in [7] is above 100 µM; in assay [8], 52.8 µM; in assay [9] it was above 100 µM; in assay [10], above 100 µM.
Regarding `CC#CC(=O)N[C@H]1CCCN(c2c(F)cc(C(N)=O)c3[nH]c(C)c(C)c23)C1`, the GI50 in assay [1] is 12 µM; in assay [2], 21.3 µM; in assay [3] it was 21.3 µM; in [4], 26.1 µM; in [5], 16.6 µM; in assay [6], 18.6 µM. The GI50 in assay [7] was 16.2 µM; in assay [8], 16.5 µM; in assay [9], 15.3 µM; in assay [10] it was 24.5 µM. In addition, the TGI in assay [1] stood at 26.6 µM; in assay [2], 70.2 µM; in [3], 47 µM; in assay [4], 88.5 µM; in assay [5], 30.7 µM; in assay [6], 42 µM. The TGI was 34.3 µM in assay [7], 44.8 µM in [8], 28.6 µM in assay [9] and 95.7 µM in assay [10].
Turning to `Cc1ccc(C(CC(=O)c2ccccc2)C(C(=O)c2ccccc2)C(c2ccc(C)cc2)C2C(=O)NC(=S)NC2=O)cc1` (stereo unspecified), the GI50 in [1] was 18.3 µM; in [2] it was 12.8 µM; in assay [3] it was 8.45 µM; in assay [4] it was 18.5 µM; in assay [5], 8.68 µM; in assay [6], 27.2 µM. The GI50 is 15.1 µM in assay [7], 44.2 µM in assay [8], 25.1 µM in [9] and 20.6 µM in assay [10]. Moreover, the TGI was above 50 µM in [1]; above 50 µM in assay [2]; 24.5 µM in [3]; above 50 µM in [4]; above 50 µM in [5]; above 50 µM in [6]. Moreover, the TGI in assay [7], in assay [8], in [9] and in assay [10] was above 50 µM throughout.
Consider `CNc1ccc(C(=O)CC(O)CCC(C)C2OC(=O)CC(O)CC(=O)CC(O)CC(O)CC(O)CC(O)CC3(O)CC(O)C(C(=O)NCCc4ccccn4)C(CC(OC4OC(C)C(O)C(N)C4O)/C=C/C=C/C=C/C=C\C=C/C=C/C=C/C2C)O3)cc1` (stereo unspecified), for which the GI50 was 0.136 µM in assay [1]; 1.63 µM in assay [3]; 0.183 µM in assay [4]; 1.59 µM in assay [5]; 0.165 µM in assay [6]; 0.0398 µM in [7]. The GI50 in assay [8] was 0.823 µM; in [9] it was 14.8 µM; in assay [10] it was 0.128 µM. The TGI in assay [1] was 0.464 µM; in [3], above 50 µM; in assay [4] it was 0.672 µM; in assay [5] it was 4.88 µM; in assay [7], 0.144 µM; in assay [8], above 50 µM. Also, the TGI in assay [9] is above 50 µM; in assay [10], 0.499 µM.
